In patent US12496332B2 (priority 2019, dated 2025):

Columns and labels:
[1] = test system: influenza virus; assay type: in vivo, mice
[2] = test system: A549 cells infected with influenza A virus; assay type: cell-based, human; settings: for decrease of the SOD1 protein during viral infection: A549 cells treated in vitro with inhibitor of autophagy or endoplasmic reticulum stress
[3] = test system: influenza virus; design: species or system mice (C57BL/6N or BALB/c); settings: mouse, in vivo

CC(=O)N[C@@H](CS)C(=O)O [NAC, N-acetylcysteine]
body weight (survivability) ([1]; […], SOD1 50 units/mouse, NAC 1 mg/mouse, 4-PBA 2.5 mg/mouse, catalase 50 units/mouse): significant difference in body weight

CCN(CC)CCCC(C)Nc1ccnc2cc(Cl)ccc12 (stereo not drawn) [chloroquine]
amount of SOD1 protein [2]: more distinct than that of 3-MA
decrease of the SOD1 protein during viral infection [2]: reduced significantly

Cn1cnc(N)c2ncnc1-2 [3-MA, 3-methyladenine]
LC3 conversion [2]: decreased
amount of SOD1 protein [2]: increase
expression of viral protein PB1 [2]: decreased expression
decrease of the SOD1 protein during viral infection [2]: reduced significantly

SOD1: superoxide dismutase 1, ROS scavenger; human SOD1 gene expressed in bacteria from pET-SOD1
amount of ROS in the bronchoalveolar lavage fluid [3]: decreased
amount of SOD1 in lung tissue [3]: recovered to a level close to that before the infection
body weight decrease ([1]; mouse, in vivo): slightly inhibited

O=C(O)CCCc1ccccc1 [4-PBA, 4-phenylbutyrate]
decrease of the SOD1 protein during viral infection [2]: reduced significantly
production of ROS compared to non-administration group [3]: decreased significantly
